This is an account of results in the NIST ThermoML archive (doi:10.1016/j.tca.2006.04.011).

Numbers after ± are expanded uncertainties.

Experiment in one series: not given
As to conditions: Crystal 1; DTA.
Regarding `Clc1cc2ccc(Cl)c(Cl)c2c(Cl)c1Cl` [naphthalene, 1,2,3,7,8-pentachloro-], the Triple point temperature is on record as 381.55 ± 3.2 K.

For `Clc1cc(Cl)c2c(Cl)c(Cl)ccc2c1Cl` [1,2,4,5,6-pentachloronaphthalene], the Triple point temperature came out at 412.65 ± 3.2 K.

`Clc1cc(Cl)c2c(Cl)c(Cl)cc(Cl)c2c1` [1,2,4,6,8-pentachloronaphthalene]: the Triple point temperature worked out at 428.95 ± 3.2 K.

Consider `Clc1cc(Cl)c2cc(Cl)c(Cl)c(Cl)c2c1` [1,2,3,5,7-pentachloronaphthalene], for which the Triple point temperature came to 444.85 ± 3.2 K.

For `Clc1cc(Cl)c2cc(Cl)cc(Cl)c2c1` [1,3,5,7-tetrachloronaphthalene], the Triple point temperature is 452.95 ± 3.2 K.

As for `Clc1cc2c(Cl)c(Cl)c(Cl)c(Cl)c2c(Cl)c1Cl` [naphthalene, 1,2,3,4,5,6,7-heptachloro-], the Triple point temperature is given as 455.95 ± 3.2 K.

In the case of `Clc1cc(Cl)c2c(Cl)c(Cl)cc(Cl)c2c1Cl` [1,2,4,5,6,8-hexachloronaphthalene], the Triple point temperature came out at 449.35 ± 3.2 K.

Turning to `Clc1cc2c(Cl)ccc(Cl)c2c(Cl)c1Cl` [1,2,3,5,8-pentachloronaphthalene], the Triple point temperature was 453.25 ± 3.2 K.

On to `Clc1cc2c(Cl)cc(Cl)c(Cl)c2cc1Cl` [naphthalene, 1,2,4,6,7-pentachloro-], for which the Triple point temperature was 404.25 ± 3.2 K.

Take `Clc1c(Cl)c(Cl)c2ccccc2c1Cl` [naphthalene, 1,2,3,4-tetrachloro-]: the Triple point temperature was determined as 470.75 ± 3.2 K.

Regarding `Clc1cc2cc(Cl)c(Cl)c(Cl)c2cc1Cl` [naphthalene, 1,2,3,6,7-pentachloro-], the Triple point temperature turned out to be 416.55 ± 3.2 K.

Consider `Clc1cc2ccccc2c(Cl)c1Cl` [naphthalene, 1,2,3-trichloro-], for which the Triple point temperature is given as 354.65 ± 3.2 K.

As for `Clc1ccc2ccc(Cl)c(Cl)c2c1Cl` [naphthalene, 1,2,7,8-tetrachloro-], the Triple point temperature was determined as 401.25 ± 3.2 K.

The series is the same for the next values; noted with them: Crystal 2; DTA.
On to `Clc1cc(Cl)c2c(Cl)c(Cl)ccc2c1Cl` [1,2,4,5,6-pentachloronaphthalene], for which the Triple point temperature worked out at 404.15 ± 3.2 K.

`Clc1cc2c(Cl)c(Cl)c(Cl)c(Cl)c2c(Cl)c1Cl` [naphthalene, 1,2,3,4,5,6,7-heptachloro-]: the Triple point temperature amounted to 454.45 ± 3.2 K.

Turning to `Clc1cc2c(Cl)ccc(Cl)c2c(Cl)c1Cl` [1,2,3,5,8-pentachloronaphthalene], the Triple point temperature was 443.35 ± 3.2 K.

Take `Clc1c(Cl)c(Cl)c2ccccc2c1Cl` [naphthalene, 1,2,3,4-tetrachloro-]: the Triple point temperature is 454.25 ± 3.2 K.

Still in this series, the particulars now being: Crystal 3; DTA.
With `Clc1cc2c(Cl)ccc(Cl)c2c(Cl)c1Cl` [1,2,3,5,8-pentachloronaphthalene], the Triple point temperature turned out to be 387.75 ± 3.2 K.

Take `Clc1c(Cl)c(Cl)c2ccccc2c1Cl` [naphthalene, 1,2,3,4-tetrachloro-]: the Triple point temperature is given as 440.45 ± 3.2 K.

A further series in a line: Molar enthalpy of transition or fusion. Conditions: Crystal 1; DSC.
On to `Clc1cc2ccc(Cl)c(Cl)c2c(Cl)c1Cl` [naphthalene, 1,2,3,7,8-pentachloro-], for which the “Molar enthalpy of transition or fusion” value stood at 4.19 ± 0.194 kcal/mol.

Regarding `Clc1cc(Cl)c2c(Cl)c(Cl)ccc2c1Cl` [1,2,4,5,6-pentachloronaphthalene], the “Molar enthalpy of transition or fusion” value was determined as 2.01 ± 0.179 kcal/mol.

On to `Clc1cc(Cl)c2c(Cl)c(Cl)cc(Cl)c2c1` [1,2,4,6,8-pentachloronaphthalene], for which the “Molar enthalpy of transition or fusion” value worked out at 4.72 ± 0.198 kcal/mol.

Regarding `Clc1cc(Cl)c2cc(Cl)c(Cl)c(Cl)c2c1` [1,2,3,5,7-pentachloronaphthalene], the “Molar enthalpy of transition or fusion” value is 6.15 ± 0.213 kcal/mol.

Take `Clc1cc(Cl)c2cc(Cl)cc(Cl)c2c1` [1,3,5,7-tetrachloronaphthalene]: the “Molar enthalpy of transition or fusion” value amounted to 6.49 ± 0.215 kcal/mol.

In the case of `Clc1cc2c(Cl)c(Cl)c(Cl)c(Cl)c2c(Cl)c1Cl` [naphthalene, 1,2,3,4,5,6,7-heptachloro-], the “Molar enthalpy of transition or fusion” value was determined as 2.09 ± 0.179 kcal/mol.

Consider `Clc1cc(Cl)c2c(Cl)c(Cl)cc(Cl)c2c1Cl` [1,2,4,5,6,8-hexachloronaphthalene], for which the “Molar enthalpy of transition or fusion” value was found to be 6.9 ± 0.22 kcal/mol.

`Clc1cc2c(Cl)ccc(Cl)c2c(Cl)c1Cl` [1,2,3,5,8-pentachloronaphthalene]: the “Molar enthalpy of transition or fusion” value was determined as 2.02 ± 0.179 kcal/mol.

Consider `Clc1cc2c(Cl)cc(Cl)c(Cl)c2cc1Cl` [naphthalene, 1,2,4,6,7-pentachloro-], for which the “Molar enthalpy of transition or fusion” value came to 5.4 ± 0.206 kcal/mol.

`Clc1c(Cl)c(Cl)c2ccccc2c1Cl` [naphthalene, 1,2,3,4-tetrachloro-]: the “Molar enthalpy of transition or fusion” value came to 2.76 ± 0.184 kcal/mol.

Take `Clc1cc2cc(Cl)c(Cl)c(Cl)c2cc1Cl` [naphthalene, 1,2,3,6,7-pentachloro-]: the “Molar enthalpy of transition or fusion” value came out at 5.48 ± 0.206 kcal/mol.

For the compound `Clc1cc2ccccc2c(Cl)c1Cl` [naphthalene, 1,2,3-trichloro-], the “Molar enthalpy of transition or fusion” value came out at 4.41 ± 0.196 kcal/mol.

Regarding `Clc1ccc2ccc(Cl)c(Cl)c2c1Cl` [naphthalene, 1,2,7,8-tetrachloro-], the “Molar enthalpy of transition or fusion” value came to 3.49 ± 0.189 kcal/mol.

Still in this series, the particulars now being: Crystal 2; DSC.
In the case of `Clc1cc(Cl)c2c(Cl)c(Cl)ccc2c1Cl` [1,2,4,5,6-pentachloronaphthalene], the “Molar enthalpy of transition or fusion” value is 3.74 ± 0.191 kcal/mol.

As to `Clc1cc2c(Cl)c(Cl)c(Cl)c(Cl)c2c(Cl)c1Cl` [naphthalene, 1,2,3,4,5,6,7-heptachloro-], the “Molar enthalpy of transition or fusion” value worked out at 2.04 ± 0.179 kcal/mol.

On to `Clc1cc2c(Cl)ccc(Cl)c2c(Cl)c1Cl` [1,2,3,5,8-pentachloronaphthalene], for which the “Molar enthalpy of transition or fusion” value amounted to 0.22 ± 0.172 kcal/mol.

As for `Clc1c(Cl)c(Cl)c2ccccc2c1Cl` [naphthalene, 1,2,3,4-tetrachloro-], the “Molar enthalpy of transition or fusion” value came to 0.318 ± 0.172 kcal/mol.

Still in this series, the particulars now being: Crystal 3; DSC.
Take `Clc1cc2c(Cl)ccc(Cl)c2c(Cl)c1Cl` [1,2,3,5,8-pentachloronaphthalene]: the “Molar enthalpy of transition or fusion” value turned out to be 3.44 ± 0.189 kcal/mol.

As to `Clc1c(Cl)c(Cl)c2ccccc2c1Cl` [naphthalene, 1,2,3,4-tetrachloro-], the “Molar enthalpy of transition or fusion” value came out at 2.52 ± 0.182 kcal/mol.
